# According to US6004948A, “Derivatives of benzosulphonamides as inhibitors of the enzyme cyclooxygenase II” (Nycomed Austria GmbH, priority 1995, dated 1999):
# Tests used:
# Human COX-2 = biological target: T1, Human COX-2 (Homo sapiens, UniProt P35354); test: Human COX-2 test (LPS-stimulated human monocytoid cell line, arachidonic acid, cyclooxygenase products by ELISA); type: cell-based; settings: for IC50: human monocytoid cell line, LPS-stimulated, half an hour pre-incubation, arachidonic acid 15 minutes, ELISA, read-out: COX II IC50; for COX I/COX II: selectivity obtained from the two tests, ratio of COX I IC50 to COX II IC50
# T1 construct: endogenous in cells
# T1 sequence (P35354 18-604): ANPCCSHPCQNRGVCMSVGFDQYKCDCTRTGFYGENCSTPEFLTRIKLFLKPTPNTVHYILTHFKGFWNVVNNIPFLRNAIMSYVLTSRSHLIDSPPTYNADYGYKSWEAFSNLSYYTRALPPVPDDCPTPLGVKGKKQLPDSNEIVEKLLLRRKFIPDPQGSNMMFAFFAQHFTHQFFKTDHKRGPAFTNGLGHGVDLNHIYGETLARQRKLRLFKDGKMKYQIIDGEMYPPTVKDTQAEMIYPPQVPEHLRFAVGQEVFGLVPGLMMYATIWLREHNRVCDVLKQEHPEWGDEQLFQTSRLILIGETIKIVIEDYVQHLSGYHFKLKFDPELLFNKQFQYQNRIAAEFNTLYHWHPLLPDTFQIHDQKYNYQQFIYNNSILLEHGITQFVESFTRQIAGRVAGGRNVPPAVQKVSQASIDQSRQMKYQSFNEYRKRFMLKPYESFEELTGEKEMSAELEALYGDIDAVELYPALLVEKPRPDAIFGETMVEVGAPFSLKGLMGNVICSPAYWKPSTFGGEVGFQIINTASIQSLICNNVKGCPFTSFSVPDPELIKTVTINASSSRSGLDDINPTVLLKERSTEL
# Method: Cells from a human monocytoid cell line are stimulated with LPS (incubator at 37° C., 5% CO2 -enriched atmosphere and approximately 100% relative humidity), in order to induce COX-2. Then the culture medium (RPMI 1640 enriched with 10% FCS, 2 mM glutamine, […], […] and 1 mM pyruvate) was renewed and potential inhibitors of cyclooxygenase-2, dissolved in culture medium or in phosphate-buffered saline or in any other solvent which is compatible with cell culture, were added and incubated for half an hour as described above. Arachidonic acid was pipetted in and incubation was continued for 15 minutes. The culture supernatant of the cells was removed and its content of products of cyclooxygenase metabolism (such as prostaglandin E2, prostaglandin F1a and thromboxane B2) was measured by ELISA.
# Human COX 1 = biological target: T2, Human COX 1 (Homo sapiens, UniProt P23219); test: Human COX 1 test (arachidonic acid-induced aggregation of washed human thrombocytes); type: cell-based; settings: arachidonic acid 10 μM, 37° C., substance added 2 minutes before, read-out: COX I IC50
# T2 construct: arachidonic acid-induced aggregation of washed human thrombocytes; endogenous in cells; host or cells: washed human thrombocytes (platelets)
# T2 sequence (P23219 24-599): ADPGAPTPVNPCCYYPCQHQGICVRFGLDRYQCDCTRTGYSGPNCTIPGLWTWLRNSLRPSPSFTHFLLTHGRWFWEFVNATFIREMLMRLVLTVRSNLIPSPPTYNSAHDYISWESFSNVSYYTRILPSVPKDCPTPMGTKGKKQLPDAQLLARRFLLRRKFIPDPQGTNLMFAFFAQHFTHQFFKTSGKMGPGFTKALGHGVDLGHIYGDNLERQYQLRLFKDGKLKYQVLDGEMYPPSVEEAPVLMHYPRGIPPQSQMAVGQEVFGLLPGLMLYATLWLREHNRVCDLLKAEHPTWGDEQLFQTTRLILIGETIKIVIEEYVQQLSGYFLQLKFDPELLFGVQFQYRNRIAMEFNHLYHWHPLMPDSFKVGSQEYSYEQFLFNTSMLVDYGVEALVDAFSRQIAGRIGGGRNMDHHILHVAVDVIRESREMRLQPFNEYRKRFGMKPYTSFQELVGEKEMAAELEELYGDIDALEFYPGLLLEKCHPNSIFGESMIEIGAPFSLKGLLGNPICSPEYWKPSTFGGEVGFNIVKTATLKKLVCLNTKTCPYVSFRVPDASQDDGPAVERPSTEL
# Method: The inhibition of arachidonic acid-induced aggregation of washed human thrombocytes was used as a test system for assessing the inhibition of cyclooxygenase I. The test substances were added to a thrombocyte suspension at 37° C. 2 minutes before the addition of the arachidonic acid (final concentration 10 μM) and the course of aggregation was measured using an aggregometer. By means of a concentration-activity curve the concentration of test substance at which 50% aggregation is measured was determined (IC50).
IC50 (Human COX-2),COX I/COX II (Human COX-2),IC50 (Human COX 1),SMILES
100 nM,≥ 500,≥ 50000 nM,"CS(=O)(=O)Nc1ccc(S(N)(=O)=O)cc1Oc1ccc(Cl)cc1Cl [Example 1, 3-(2,4-Dichlorophenoxy)-4-methylsulphonylamino-benzenesulphonamide]"
110 nM,≥ 450,≥ 45000 nM,"CS(=O)(=O)Nc1cc2c(cc1Oc1ccccc1)S(=O)(=O)NC2 [Example 4, 6-(Phenoxy) -5-methylsulphonylamino-2H-1,2-benzothiazolidin-1,1-dioxide]"
200 nM,260,52000 nM,"CS(=O)(=O)Nc1ccc(S(N)(=O)=O)cc1Sc1ccc(F)cc1F [Example 6, 3-(2,4-Difluorothiophenoxy)-4-methylsulphonylamino-benzenesulphonamide]"
27 nM,1000,27000 nM,"CS(=O)(=O)Nc1ccc(S(N)(=O)=O)cc1Sc1ccc(Cl)cc1Cl [Example 7, 3-(2,4-Dichlorothiophenoxy)-4-methylsulphonylamino-benzenesulphonamide]"
150 nM,73,11000 nM,"CS(=O)(=O)Nc1ccc(S(N)(=O)=O)cc1Sc1ccc(F)cc1Cl [Example 8, 3-(2-Chloro-4-fluorothiophenoxy)-4-methylsulphonylamino-benzene-sulphonamide]"
170 nM,353,60000 nM,"CS(=O)(=O)Nc1ccc(S(N)(=O)=O)cc1Sc1ccc(Cl)cc1 [Example 17, 3-(4-Chlorophenylthio) -4-methylsulphonylaminobenzenesulphonamide]"
540 nM,≥ 110,≥ 60000 nM,"CS(=O)(=O)Nc1ccc(S(N)(=O)=O)cc1SC1CCCCC1 [Example 19, 3-(Cyclohexylthio)-4-methylsulphonylaminobenzene-sulphonamide]"
170 nM,≥ 196,≥ 35000 nM,"CS(=O)(=O)Nc1ccc(S(N)(=O)=O)cc1Sc1ccccc1Cl [Example 25, 3-(2-Chlorophenylthio)-4-methylsulphonylaminobenzene-sulphonamide]"
270 nM,≥ 253,≥ 70000 nM,"CS(=O)(=O)Nc1ccc(S(N)(=O)=O)cc1Sc1ccc(Br)cc1 [Example 26, 3-(4-Bromophenylthio)-4-methylsulphonylaminobenzenesulphonamide]"
